Laboratory results as given in patent publication US20210395313A1, “PEPTIDE PAC1 ANTAGONISTS” (AMGEN INC., priority 2017, published 2021).
Where a SMILES comes first, the peptide text is derived from it. Bridges are numbered along the chain shown (N, C = ends). Where no end group is shown, it is not given here.

Target: T1, rat PAC1 receptor (Rattus norvegicus, UniProt P32215)
T1 construct: SHSY-5Y (human neuroblastoma cell line) and RG-2 (rat glioma cell line) cells endogenously express human and rat PAC1 receptors, respectively; endogenous in cells; host or cells: RG-2 rat glioma cells
T1 sequence (P32215 20-523): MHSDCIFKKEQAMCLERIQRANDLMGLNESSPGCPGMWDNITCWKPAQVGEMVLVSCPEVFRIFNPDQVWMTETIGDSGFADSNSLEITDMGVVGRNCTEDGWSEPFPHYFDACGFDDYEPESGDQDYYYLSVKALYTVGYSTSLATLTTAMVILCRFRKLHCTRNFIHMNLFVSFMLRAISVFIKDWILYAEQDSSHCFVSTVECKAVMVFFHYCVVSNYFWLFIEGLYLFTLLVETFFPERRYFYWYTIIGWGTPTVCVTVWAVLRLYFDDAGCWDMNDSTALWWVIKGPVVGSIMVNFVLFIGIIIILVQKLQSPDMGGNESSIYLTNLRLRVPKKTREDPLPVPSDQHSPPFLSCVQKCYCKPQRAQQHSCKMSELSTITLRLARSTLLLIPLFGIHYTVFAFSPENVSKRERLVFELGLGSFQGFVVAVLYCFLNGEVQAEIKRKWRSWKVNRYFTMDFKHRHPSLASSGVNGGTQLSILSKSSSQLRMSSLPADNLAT
Assay: LANCE Ultra cAMP accumulation antagonist assay in RG-2 cells;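 further: RG-2 rat glioma cells endogenously expressing PAC1, test peptide preincubated 30 min, then PAC1 agonist added at its EC80 for 15 min, cAMP accumulation read by LANCE Ultra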
Format: cell-based

Row | Compound | IC50 [nM]
1 | CC[C@H](C)[C@H](NC(=O)[C@H](C)NC(=O)[C@H](CCCCN)NC(=O)[C@H](CCCNC(=N)N)NC(=O)[C@H](Cc1ccccc1)NC(=O)[C@H](CCC(N)=O)NC(=O)[C@@H]1CSSC[C@H](N)C(=O)N[C@@H](CC(=O)O)C(=O)N[C@@H](C)C(=O)N[C@@H]([C@@H](C)O)C(=O)N1)C(=O)N[C@@H](CC(=O)O)C(=O)N[C@@H](CC(=O)O)C(=O)N[C@H]1CSSC[C@@H](C(=O)N[C@@H](CCSC)C(=O)N[C@@H](CCCCN)C(=O)N[C@@H](CCC(N)=O)C(=O)N[C@@H](CCCCN)C(=O)N[C@@H](CCCCN)C(=O)N[C@@H](CCCCN)C(=O)N[C@@H](CCC(=O)O)C(=O)N[C@@H](Cc2c[nH]c3ccccc23)C(=O)N[C@@H](CCCCN)C(=O)N[C@@H](C)C(=O)NCC(=O)N[C@@H](Cc2c[nH]cn2)C(=O)O)NC(=O)[C@H](C)NC(=O)[C@H](CCCCN)NC(=O)[C@H](Cc2ccccc2)NC(=O)[C@H](CO)NC(=O)[C@H](Cc2c[nH]cn2)NC(=O)[C@H](Cc2ccc(O)cc2)NC(=O)[C@H](C)NC(=O)[C@H](CCC(N)=O)NC(=O)[C@H](CCCNC(=N)N)NC(=O)[C@H](C)NC1=O [compound 439] (H-CDATCQFRKAIDDCARQAYHSFKACMKQKKKEWKAGH-OH; disulfide 1-5, 14-25) | 0.01 to 1
2 | CC[C@H](C)[C@H](NC(=O)[C@H](C)NC(=O)[C@H](CCCCN)NC(=O)[C@H](CCCNC(=N)N)NC(=O)[C@H](Cc1ccccc1)NC(=O)[C@H](CCC(N)=O)NC(=O)[C@@H]1CSSC[C@H](N)C(=O)N[C@@H](CC(=O)O)C(=O)N[C@@H](C)C(=O)N[C@@H]([C@@H](C)O)C(=O)N1)C(=O)N[C@@H](CC(=O)O)C(=O)N[C@@H](CC(=O)O)C(=O)N[C@H]1CSSC[C@@H](C(=O)N[C@@H](CCSC)C(=O)N[C@@H](CCCCN)C(=O)N[C@@H](CCC(N)=O)C(=O)N[C@@H](CCCCN)C(=O)N[C@@H](CCCCN)C(=O)N[C@@H](CCCCN)C(=O)N[C@@H](CCC(=O)O)C(=O)N[C@@H](Cc2c[nH]c3ccccc23)C(=O)N[C@@H](CCCCN)C(=O)N[C@@H](C)C(=O)NCC(N)=O)NC(=O)[C@H](C)NC(=O)[C@H](CCCCN)NC(=O)[C@H](Cc2ccccc2)NC(=O)[C@H](C(C)C)NC(=O)[C@H](CO)NC(=O)[C@H](CC(N)=O)NC(=O)[C@H](CO)NC(=O)[C@H](Cc2c[nH]cn2)NC(=O)[C@H](Cc2ccc(O)cc2)NC(=O)[C@H](C)NC(=O)[C@H](CCC(N)=O)NC(=O)[C@H](CCCNC(=N)N)NC(=O)[C@H](C)NC1=O [compound 429] (H-CDATCQFRKAIDDCARQAYHSNSVFKACMKQKKKEWKAG-NH2; disulfide 1-5, 14-28) | < 0.01
3 | CC[C@H](C)[C@H](NC(=O)[C@H](C)NC(=O)[C@H](CCCCN)NC(=O)[C@H](CCCNC(=N)N)NC(=O)[C@H](Cc1ccccc1)NC(=O)[C@H](CCC(N)=O)NC(=O)[C@@H]1CSSC[C@H](N)C(=O)N[C@@H](CC(=O)O)C(=O)N[C@@H](C)C(=O)N[C@@H]([C@@H](C)O)C(=O)N1)C(=O)N[C@@H](CC(=O)O)C(=O)N[C@@H](CC(=O)O)C(=O)N[C@H]1CSSC[C@@H](C(=O)N[C@@H](CCSC)C(=O)N[C@@H](CCCCN)C(=O)N[C@@H](CCC(N)=O)C(=O)N[C@@H](CCCCN)C(=O)N[C@@H](CCCCN)C(=O)N[C@@H](CCCCN)C(=O)N[C@@H](CCC(=O)O)C(=O)N[C@@H](Cc2c[nH]c3ccccc23)C(=O)N[C@@H](CCCCN)C(=O)N[C@@H](C)C(=O)NCC(=O)N[C@@H](Cc2c[nH]cn2)C(=O)O)NC(=O)[C@H](C)NC(=O)[C@H](CCCCN)NC(=O)[C@H](Cc2ccccc2)NC(=O)[C@H](C)NC1=O [compound 444] (H-CDATCQFRKAIDDCAFKACMKQKKKEWKAGH-OH; disulfide 1-5, 14-19) | 1 to 100
4 | CSCC[C@H](NC(=O)[C@H](CO)NC(=O)[C@H](C)NC(=O)[C@H](CCCCN)NC(=O)[C@H](Cc1ccccc1)NC(=O)[C@@H](NC(=O)[C@H](CO)NC(=O)[C@H](C)NC(=O)[C@@H](NC(=O)[C@H](CC(C)C)NC(=O)CNC(=O)[C@H](CCCCN)NC(=O)[C@H](CCCNC(=N)N)NC(=O)[C@H](Cc1ccc(O)cc1)NC(=O)[C@H](CCC(N)=O)NC(=O)[C@@H]1CSSC[C@H](N)C(=O)N[C@@H](CC(=O)O)C(=O)N[C@@H](C)C(=O)N[C@@H]([C@@H](C)O)C(=O)N1)C(C)C)C(C)C)C(=O)N[C@@H](CCCCN)C(=O)N[C@@H](CCC(N)=O)C(=O)N[C@@H](CCCCN)C(=O)N[C@@H](CCCCN)C(=O)N[C@@H](CCCCN)C(=O)N[C@@H](CCC(=O)O)C(=O)N[C@@H](Cc1ccccc1)C(=O)N[C@@H](CCCCN)C(=O)N[C@@H](C)C(=O)NCC(=O)O [compound 438] (H-CDATCQYRKGLVASVFKASMKQKKKEFKAG-OH; disulfide 1-5) | > 100
5 | CDATCQFRKAIDDCQKQAHHSNVPGSVFKACMKQKKKEFKAGY (disulfide 1-5, 14-31) [compound 164] | 0.01 to 1
6 | CC[C@H](C)[C@H](NC(=O)[C@H](C)NC(=O)[C@H](CCCCN)NC(=O)[C@H](CCCNC(=N)N)NC(=O)[C@H](Cc1ccccc1)NC(=O)[C@H](CCC(N)=O)NC(=O)[C@@H]1CSSC[C@H](N)C(=O)N[C@@H](CC(=O)O)C(=O)N[C@@H](C)C(=O)N[C@@H]([C@@H](C)O)C(=O)N1)C(=O)N[C@@H](CC(=O)O)C(=O)N[C@@H](CC(=O)O)C(=O)N[C@H]1CSSC[C@@H](C(=O)N[C@@H](CC(C)C)C(=O)N[C@@H](CCCCN)C(=O)N[C@@H](CCC(N)=O)C(=O)N[C@@H](CCCCN)C(=O)N[C@@H](CCCCN)C(=O)N[C@@H](CCCCN)C(=O)N[C@@H](CCC(=O)O)C(=O)N[C@@H](Cc2c[nH]c3ccccc23)C(=O)N[C@@H](CCCCN)C(=O)N[C@@H](C)C(=O)NCC(N)=O)NC(=O)[C@H](CO)NC(=O)[C@H](CCCCN)NC(=O)[C@H](Cc2ccccc2)NC(=O)[C@H](C(C)C)NC(=O)[C@H](CO)NC(=O)[C@H](CO)NC(=O)[C@H](Cc2c[nH]cn2)NC(=O)[C@H](Cc2ccc(O)cc2)NC(=O)[C@H](C)NC(=O)[C@H](CCC(N)=O)NC(=O)[C@H](CCCNC(=N)N)NC(=O)[C@H](C)NC1=O [compound 436] (H-CDATCQFRKAIDDCARQAYHSSVFKSCLKQKKKEWKAG-NH2; disulfide 1-5, 14-27) | 0.01 to 1
7 | CC[C@H](C)[C@H](NC(=O)[C@H](C)NC(=O)[C@H](CCCCN)NC(=O)[C@H](CCCNC(=N)N)NC(=O)[C@H](Cc1ccccc1)NC(=O)[C@H](CCC(N)=O)NC(=O)[C@@H]1CSSC[C@H](N)C(=O)N[C@@H](CC(=O)O)C(=O)N[C@@H](C)C(=O)N[C@@H]([C@@H](C)O)C(=O)N1)C(=O)N[C@@H](CC(=O)O)C(=O)N[C@@H](CC(=O)O)C(=O)N[C@H]1CSSC[C@@H](C(=O)N[C@@H](CCSC)C(=O)N[C@@H](CCCCN)C(=O)N[C@@H](CCC(N)=O)C(=O)N[C@@H](CCCCN)C(=O)N[C@@H](CCCCN)C(=O)N[C@@H](CCCCN)C(=O)N[C@@H](CCC(=O)O)C(=O)N[C@@H](Cc2c[nH]c3ccccc23)C(=O)N[C@@H](CCCCN)C(=O)N[C@@H](C)C(=O)N[C@@H](Cc2c[nH]cn2)C(=O)O)NC(=O)[C@H](C)NC(=O)[C@H](CCCCN)NC(=O)[C@H](Cc2ccccc2)NC(=O)[C@H](CO)NC(=O)[C@H](Cc2c[nH]cn2)NC(=O)[C@H](Cc2ccc(O)cc2)NC(=O)[C@H](C)NC(=O)[C@H](CCC(N)=O)NC(=O)[C@H](CCCNC(=N)N)NC(=O)[C@H](C)NC1=O [compound 451] (H-CDATCQFRKAIDDCARQAYHSFKACMKQKKKEWKAH-OH; disulfide 1-5, 14-25) | 1 to 100
8 | CDATCQFRKAIDDCQKQAHHSNVPGSVFKACMKQKKKEFKAN-NH2 (disulfide 1-5, 14-31) [compound 205] | 0.01 to 1
9 | CDATCQFRKAIDDCQKQAHHSNVPGSVFKACMKQKKKEFKAGH (disulfide 1-5, 14-31) [compound 171] | 0.01 to 1
